# Laboratory results taken from ChEMBL document CHEMBL1201862, “PubChem BioAssay data set” (2004).
# Calls of active or inactive are those of the source.
# Key:
# Cytochrome P450 3A4 = Cytochrome P450 3A4 (Homo sapiens, UniProt P08684);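 note: CYP3A4 tested as one member of a cytochrome P450 panel screen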
# Cytochrome P450 2D6 = Cytochrome P450 2D6 (Homo sapiens, UniProt P10635);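 note: CYP2D6 member of a cytochrome P450 panel assay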
# Cytochrome P450 2C19 = Cytochrome P450 2C19 (Homo sapiens, UniProt P33261); assay: Cytochrome panel assay with activity outcomes. Panel member name: p450-cyp2c19 Compounds with AC50 equal or less than 10 uM are considered active; format: functional
# Cytochrome P450 1A2 = target: T1, Cytochrome P450 1A2 (Homo sapiens, UniProt P05177);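 note: PubChem cytochrome P450 panel assay, CYP1A2 panel member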
# T1 sequence (P05177 whole entry): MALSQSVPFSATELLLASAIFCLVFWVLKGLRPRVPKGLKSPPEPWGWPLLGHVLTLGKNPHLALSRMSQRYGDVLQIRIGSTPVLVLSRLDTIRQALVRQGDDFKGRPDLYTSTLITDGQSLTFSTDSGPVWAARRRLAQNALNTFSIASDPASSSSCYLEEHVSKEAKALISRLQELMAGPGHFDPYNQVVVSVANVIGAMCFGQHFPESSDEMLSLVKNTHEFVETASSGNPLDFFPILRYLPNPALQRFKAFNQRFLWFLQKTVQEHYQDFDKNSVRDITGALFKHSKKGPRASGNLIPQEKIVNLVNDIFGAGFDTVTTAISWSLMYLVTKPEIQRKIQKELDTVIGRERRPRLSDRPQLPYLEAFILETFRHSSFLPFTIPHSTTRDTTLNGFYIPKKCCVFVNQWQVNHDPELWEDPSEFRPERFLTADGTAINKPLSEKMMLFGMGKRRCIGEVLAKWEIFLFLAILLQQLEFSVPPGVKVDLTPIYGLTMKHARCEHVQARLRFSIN
# Cytochrome P450 2C9 = Cytochrome P450 2C9 (Homo sapiens, UniProt P11712)
# [1] = target: T2, Heat shock factor protein 1 (Mus musculus, UniProt P38532); assay: HSF1 potentiators in luciferase reporter cells, confirmation, cell-based, NIH3T3, luminescence, dose retest (AID 435004); format: functional;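 note: stress induced by proteasome inhibitor MG132 added 30 min after compound; luciferase reporter driven by HSF1 response element in NIH3T3 cells; actives raise luminescence as potentiators of the MG132 stress response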
# T2 sequence (P38532 whole entry): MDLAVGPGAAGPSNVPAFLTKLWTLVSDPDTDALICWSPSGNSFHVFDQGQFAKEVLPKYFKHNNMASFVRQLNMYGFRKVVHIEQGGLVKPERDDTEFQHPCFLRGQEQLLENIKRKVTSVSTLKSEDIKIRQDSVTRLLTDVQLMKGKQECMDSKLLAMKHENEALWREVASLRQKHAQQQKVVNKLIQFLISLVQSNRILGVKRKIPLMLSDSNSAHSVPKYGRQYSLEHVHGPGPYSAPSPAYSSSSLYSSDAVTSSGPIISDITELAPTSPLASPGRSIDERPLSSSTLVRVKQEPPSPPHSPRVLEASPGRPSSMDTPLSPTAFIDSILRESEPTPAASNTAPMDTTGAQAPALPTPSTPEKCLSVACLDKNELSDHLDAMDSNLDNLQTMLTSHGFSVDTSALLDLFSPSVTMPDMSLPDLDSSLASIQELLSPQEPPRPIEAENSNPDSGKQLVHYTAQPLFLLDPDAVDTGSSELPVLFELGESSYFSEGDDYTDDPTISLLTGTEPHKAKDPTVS
# Chain of Cytochrome P450 2C19 (P33261 whole entry): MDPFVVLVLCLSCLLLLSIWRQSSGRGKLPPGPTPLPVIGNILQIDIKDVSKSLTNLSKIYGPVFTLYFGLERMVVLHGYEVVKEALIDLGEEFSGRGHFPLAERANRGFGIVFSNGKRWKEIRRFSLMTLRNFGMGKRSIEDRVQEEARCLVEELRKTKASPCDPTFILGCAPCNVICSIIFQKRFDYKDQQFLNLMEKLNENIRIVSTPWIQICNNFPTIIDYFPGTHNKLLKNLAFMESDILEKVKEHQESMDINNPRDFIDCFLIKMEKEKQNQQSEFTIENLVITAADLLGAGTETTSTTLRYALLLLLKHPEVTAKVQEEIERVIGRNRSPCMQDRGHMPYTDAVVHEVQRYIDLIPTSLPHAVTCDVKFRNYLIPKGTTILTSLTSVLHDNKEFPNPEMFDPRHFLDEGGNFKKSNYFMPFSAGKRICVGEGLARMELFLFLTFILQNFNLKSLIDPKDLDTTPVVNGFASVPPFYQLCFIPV
# Chain of Cytochrome P450 3A4 (P08684 whole entry): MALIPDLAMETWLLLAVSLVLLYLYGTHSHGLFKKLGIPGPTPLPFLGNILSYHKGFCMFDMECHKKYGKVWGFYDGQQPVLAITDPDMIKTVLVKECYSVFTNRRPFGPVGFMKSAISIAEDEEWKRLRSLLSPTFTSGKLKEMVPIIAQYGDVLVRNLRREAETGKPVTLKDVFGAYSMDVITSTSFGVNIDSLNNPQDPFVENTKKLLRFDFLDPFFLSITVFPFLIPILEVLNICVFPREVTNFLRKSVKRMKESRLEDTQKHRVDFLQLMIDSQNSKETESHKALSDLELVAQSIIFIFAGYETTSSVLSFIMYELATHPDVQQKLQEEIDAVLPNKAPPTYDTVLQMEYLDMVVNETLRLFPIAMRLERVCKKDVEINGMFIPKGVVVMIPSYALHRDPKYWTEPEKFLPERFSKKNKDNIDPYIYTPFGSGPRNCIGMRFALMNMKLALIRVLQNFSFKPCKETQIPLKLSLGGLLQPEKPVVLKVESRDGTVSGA
# Chain of Cytochrome P450 2D6 (P10635 whole entry): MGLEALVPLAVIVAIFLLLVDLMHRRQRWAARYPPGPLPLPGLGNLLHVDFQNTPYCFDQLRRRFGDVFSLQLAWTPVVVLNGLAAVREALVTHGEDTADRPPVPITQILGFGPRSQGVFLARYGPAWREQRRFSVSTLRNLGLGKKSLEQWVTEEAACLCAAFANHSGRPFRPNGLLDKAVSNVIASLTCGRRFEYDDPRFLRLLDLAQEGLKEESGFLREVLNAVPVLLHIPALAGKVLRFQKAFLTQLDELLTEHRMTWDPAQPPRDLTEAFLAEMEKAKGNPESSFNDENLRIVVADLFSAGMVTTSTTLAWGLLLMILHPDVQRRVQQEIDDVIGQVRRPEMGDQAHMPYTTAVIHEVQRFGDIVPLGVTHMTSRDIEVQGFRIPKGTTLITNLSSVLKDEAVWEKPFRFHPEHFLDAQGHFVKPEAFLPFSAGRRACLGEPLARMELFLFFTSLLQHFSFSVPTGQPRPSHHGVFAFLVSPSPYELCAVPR
# Chain of Cytochrome P450 2C9 (P11712 whole entry): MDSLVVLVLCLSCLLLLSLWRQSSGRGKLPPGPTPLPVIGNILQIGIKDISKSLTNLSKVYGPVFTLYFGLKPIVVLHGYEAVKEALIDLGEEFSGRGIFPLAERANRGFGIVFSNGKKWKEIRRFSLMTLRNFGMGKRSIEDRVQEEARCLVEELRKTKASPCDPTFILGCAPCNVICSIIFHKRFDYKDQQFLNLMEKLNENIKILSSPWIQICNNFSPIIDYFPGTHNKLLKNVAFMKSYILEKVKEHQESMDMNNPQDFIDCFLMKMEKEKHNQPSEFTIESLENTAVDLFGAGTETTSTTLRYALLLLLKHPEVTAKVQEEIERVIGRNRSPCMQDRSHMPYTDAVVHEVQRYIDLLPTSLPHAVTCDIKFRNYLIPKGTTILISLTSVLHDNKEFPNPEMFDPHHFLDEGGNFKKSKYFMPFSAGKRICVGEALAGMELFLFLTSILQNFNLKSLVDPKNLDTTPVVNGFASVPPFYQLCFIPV
compound,measurement,setting,value
CCCCNc1nc(SC)nc2[nH]cnc12,AC50,Cytochrome P450 3A4,3.16 µM (inconclusive)
same,AC50,Cytochrome P450 2D6,2.51 µM (inconclusive)
same,AC50,Cytochrome P450 2C19; read-out: AC50,3.16 µM (inconclusive)
CN(C)c1ncc2nc(-c3ccc(Cl)cc3)c(=O)n(-c3ccccc3)c2n1,AC50,Cytochrome P450 1A2,5.01 µM (inconclusive)
same,AC50,Cytochrome P450 2D6,0.631 µM (inconclusive)
Cc1ccc(NC(=S)N2CCN(C3CCCCC3)CC2)cc1,AC50,Cytochrome P450 3A4,10 µM (inconclusive)
C(=C/c1ccccc1)/C=N/c1ccc2c(c1)Cc1ccccc1-2,AC50,Cytochrome P450 3A4,3.98 µM (inconclusive)
COC(=O)C1(Cc2ccccc2)C=C2C(=C(C(C)C)C(=O)C2C)CN1 (stereo not drawn),AC50,Cytochrome P450 2C9,31.6 µM (inconclusive)
same,AC50,Cytochrome P450 1A2,15.8 µM (inconclusive)
same,AC50,Cytochrome P450 2C19; read-out: AC50,39.8 µM (inconclusive)
"CN(C(=O)Cc1ccc(Cl)c(Cl)c1)[C@H](CN1CCCC1)c1ccccc1 [ICI-199,441]",AC50,Cytochrome P450 1A2,31.6 µM (inconclusive)
same,AC50,Cytochrome P450 2D6,0.0126 µM (active)
O=C1c2ccccc2C(=O)c2c1ccc(C(=O)O)c2-c1ccc2ccccc2c1,AC50,Cytochrome P450 1A2,1.26 µM (inconclusive)
same,AC50,Cytochrome P450 2D6,7.94 µM (inconclusive)
CC(=O)NN1C(=O)/C(=C\c2ccc(C)cc2)SC1=S,AC50,Cytochrome P450 2C9,28.2 µM (inconclusive)
COC(=O)[C@@]1(Cc2ccccc2)[C@H]2c3cc(C(=O)N4CCCC4)n(Cc4cc(F)cc5c4OCOC5)c3C[C@H]2CN1C(=O)c1ccccc1,AC50,Cytochrome P450 2D6,10 µM (inconclusive)
CCOC(=O)c1c(C)n(C)c2ccc(OC)c(NC(=O)CN3CCCCC3)c12,AC50,Cytochrome P450 3A4,14.1 µM (inconclusive)
same,AC50,Cytochrome P450 2D6,20 µM (inconclusive)
same,AC50,Cytochrome P450 2C19; read-out: AC50,11.2 µM (inconclusive)
Fc1ccc(-c2csc(N3CCC(c4ccccc4)C3)n2)cc1 (stereo not drawn),AC50,Cytochrome P450 3A4,28.2 µM (inconclusive)
CCCCN(C(S)=Nc1ccccc1)C1CCS(=O)(=O)C1 (stereo not drawn),AC50,Cytochrome P450 3A4,22.4 µM (inconclusive)
O=c1[nH]ncc2c3ccccc3n(Cc3ccccc3)c12,AC50,Cytochrome P450 2C9,2 µM (inconclusive)
same,AC50,Cytochrome P450 2C19; read-out: AC50,2.51 µM (inconclusive)
COc1ccccc1-c1cncnc1-n1ccnc1,AC50,Cytochrome P450 2D6,25.1 µM (inconclusive)
same,AC50,Cytochrome P450 2C19; read-out: AC50,25.1 µM (inconclusive)
CCOc1cc(NC(=O)c2ccccc2C)c(OCC)cc1N=C(S)NCC1CCCO1 (stereo not drawn),AC50,Cytochrome P450 2C19; read-out: AC50,11.2 µM (inconclusive)
COc1ccccc1CN1CCCC2(CCN(C(=O)c3ccncc3)CC2)C1,AC50,Cytochrome P450 2C9,20 µM (inconclusive)
same,AC50,Cytochrome P450 1A2,20 µM (inconclusive)
CCOC(=O)c1ccccc1NC(=O)CSc1cccc[n+]1[O-],AC50,Cytochrome P450 1A2,25.1 µM (inconclusive)
same,AC50,Cytochrome P450 2C19; read-out: AC50,22.4 µM (inconclusive)
CC(=O)NCCn1ccc2ccccc21,EC50,[1],> 260 µM (inactive)
COCCn1c(=O)c(-c2ccc(Cl)cc2)nc2cncnc21,AC50,Cytochrome P450 3A4,12.6 µM (inconclusive)
same,AC50,Cytochrome P450 2C9,31.6 µM (inconclusive)
same,AC50,Cytochrome P450 2C19; read-out: AC50,39.8 µM (inconclusive)
CS(=O)(=O)Nc1cccc(-c2nc(NCc3cccnc3)c3ccccc3n2)c1,AC50,Cytochrome P450 2C9,1 µM (inconclusive)
Nc1ccccc1SCc1csc(-c2ccc(Cl)cc2)n1,AC50,Cytochrome P450 2C9,5.01 µM (inconclusive)
same,AC50,Cytochrome P450 2D6,3.16 µM (inconclusive)
C/C(=N/NC(=O)c1cccs1)c1ccc(NC(=O)COc2ccc(Cl)cc2Cl)cc1,AC50,Cytochrome P450 2C9,4.47 µM (inconclusive)
same,AC50,Cytochrome P450 1A2,12.6 µM (inconclusive)
Cc1ccc(C2=Nc3ccccc3NC(C)(c3ccc(C)o3)C2)o1 (stereo not drawn),EC50,[1],> 260 µM (inactive)
CCNc1ncc2nc(-c3cccc(C#N)c3)c(=O)n(CCC#N)c2n1,AC50,Cytochrome P450 3A4,7.94 µM (inconclusive)
same,AC50,Cytochrome P450 1A2,0.631 µM (inconclusive)
COc1ccc(OCCn2c(C)c(/C=N/n3cnnc3)c3ccccc32)cc1,AC50,Cytochrome P450 2D6,3.98 µM (inconclusive)
COc1ccc(C(=O)NCCCN2CCOCC2)cc1OC,AC50,Cytochrome P450 2C9,14.1 µM (inconclusive)
same,AC50,Cytochrome P450 2D6,2 µM (inconclusive)
Cc1ccc(NC(=S)N=Nc2c(O)n(C)c3ccc(S(=O)(=O)N4CCOCC4)cc23)cc1,EC50,[1],6.25 µM (active)
COc1ccccc1CNc1ncnc2ccc(-c3ccccc3OC)cc12,AC50,Cytochrome P450 2D6,12.6 µM (inconclusive)
CC1(CCC#N)N=C(SCCC#N)N(c2ccccc2)C1=O (stereo not drawn),AC50,Cytochrome P450 2C19; read-out: AC50,25.1 µM (inconclusive)
CCCCCCCCCCCCC/C=C\[C@@H](O)[C@@H](N)CO,AC50,Cytochrome P450 2C9,39.8 µM (inconclusive)
same,AC50,Cytochrome P450 2C19; read-out: AC50,25.1 µM (inconclusive)
Cc1cccc(CN2CCC(C(=O)Nc3cccc(-c4cscn4)c3)CC2)n1,EC50,[1],> 260 µM (inactive)
O=c1ccc2ccc(Oc3ccc([N+](=O)[O-])cc3[N+](=O)[O-])cc2o1,EC50,[1],13.5 µM (active)
COc1ccc(C2SCC(=O)Nc3c2c(C)nn3-c2ccccc2)cc1OC (stereo not drawn),AC50,Cytochrome P450 3A4,12.6 µM (inconclusive)
same,AC50,Cytochrome P450 1A2,22.4 µM (inconclusive)
CNC(=O)c1cc2c(cn1)[nH]c1ccccc12,AC50,Cytochrome P450 3A4,39.8 µM (inconclusive)
same,AC50,Cytochrome P450 2C9,31.6 µM (inconclusive)
same,AC50,Cytochrome P450 2C19,inconclusive
O=C(CN(Cc1ccccc1)S(=O)(=O)c1ccc2c(c1)OCCO2)N/N=C/c1ccc(F)cc1,AC50,Cytochrome P450 1A2,11.2 µM (inconclusive)
same,AC50,Cytochrome P450 2D6,15.8 µM (inconclusive)
CCOC(=O)C1=CN(Cc2ccc(OC)cc2)C=C(C(=O)OCC)C1c1cccs1,EC50,[1],> 260 µM (inactive)
CCOc1ccc(-c2nnc(-c3ccncc3)o2)cc1,AC50,Cytochrome P450 3A4,1.58 µM (inconclusive)
Cc1cc(C)c(C(N)=O)c(SCC(=O)c2ccc(Cl)cc2)n1,AC50,Cytochrome P450 3A4,31.6 µM (inconclusive)
same,AC50,Cytochrome P450 1A2,15.8 µM (inconclusive)
CCNc1ncc2nc(-c3cc(F)cc(F)c3)c(=O)n(-c3ccc(OC)cc3)c2n1,AC50,Cytochrome P450 2D6,0.158 µM (inconclusive)
"COc1ccc(-c2coc3cc(OC)cc(O)c3c2=O)cc1 [4',7-DIMETHOXY-5-HYDROXYGENISTEIN]",AC50,Cytochrome P450 2C9,2.82 µM (inconclusive)
same,AC50,Cytochrome P450 2C19; read-out: AC50,25.1 µM (inconclusive)
COc1cccc(C(=O)Nc2ccc3c(C)cc(=O)oc3c2)c1,EC50,[1],> 260 µM (inactive)
CC1CCCN(C(=O)c2ccccc2OC2CCN(S(C)(=O)=O)CC2)C1 (stereo not drawn),EC50,[1],> 260 µM (inactive)
CC(C)(C)c1ccc(OCC(=O)NN2Cc3ccccc3C2=N)cc1,EC50,[1],> 260 µM (inactive)
CCCCN1C(=O)C(NC(=O)CC(C)C)(C(F)(F)F)C2=C1CC(C)(C)CC2=O (stereo not drawn),AC50,Cytochrome P450 2C9,5.62 µM (inconclusive)
same,AC50,Cytochrome P450 2C19; read-out: AC50,25.1 µM (inconclusive)
CC(C)=NOCc1cccc(-c2cc(-c3ccccc3)no2)c1,AC50,Cytochrome P450 3A4,6.31 µM (inconclusive)
COc1cccc(-c2c(C(=O)N/N=C(\C)c3ccc(Cl)s3)nnn2-c2nonc2N)c1,EC50,[1],51.8 µM (active)
N#Cc1ccc(Cl)cc1NC(=O)CNCc1cccs1,EC50,[1],> 260 µM (inactive)
CCOc1ccc(C)cc1S(=O)(=O)NC1CCCCC1,EC50,[1],> 260 µM (inactive)
Cc1ccc(C(=O)NCCCN2CCOCC2)cc1N1CCCC1=O,AC50,Cytochrome P450 2C9,1.26 µM (inconclusive)
CC(C)CN1CCC2(CC1)CCN(C(=O)c1cccn1C)CC2,AC50,Cytochrome P450 2D6,12.6 µM (inconclusive)
CC12COC3(C(=O)Nc4nccs4)CC1CCC32C (stereo not drawn),AC50,Cytochrome P450 2C9,0.01 µM (inconclusive)
same,AC50,Cytochrome P450 1A2,12.6 µM (inconclusive)
CC(C)(C)CC(C)(C)c1ccc(O)c(C[N+](C)(C)[O-])c1,AC50,Cytochrome P450 3A4,5.01 µM (inconclusive)
same,AC50,Cytochrome P450 2D6,7.94 µM (inconclusive)
Cc1onc(-c2ccccc2)c1C(=O)NC(CC(=O)O)c1ccc(OC(C)C)cc1 (stereo not drawn),AC50,Cytochrome P450 3A4,28.2 µM (inconclusive)
same,AC50,Cytochrome P450 2C9,15.8 µM (inconclusive)
same,AC50,Cytochrome P450 2C19; read-out: AC50,7.08 µM (inconclusive)
CCCc1ccc(NC(=O)C2CCCN(c3cnccn3)C2)cc1 (stereo not drawn),EC50,[1],> 260 µM (inactive)
C(=N\n1cnnc1)/c1cccn1-c1ccccc1,AC50,Cytochrome P450 3A4,39.8 µM (inconclusive)
same,AC50,Cytochrome P450 2C19; read-out: AC50,0.0251 µM (inconclusive)
Cc1ccc(CNC(=O)Cn2c(=O)oc3ccccc32)o1,AC50,Cytochrome P450 2D6,20 µM (inconclusive)
